Where two headings read alike, the source gives them in different places.
Assays:
[1] = target: T1, canine 5-HT2A receptor (Canis lupus familiaris, UniProt O46635); assay: cell-based; type: cell-based; parameters: The resulting 5-HT2A full length cDNA was cloned into the pCIneo vector; expressed in transfected cells; conditions: for Rel. eff. c5-HT2A: HEK-293, fraction of response to 10 μM 5-HT; for agonist potency at canine 5-HT2A compared to human 5-HT2A: Table 3
[2] = target: T2, human 5-HT2B receptor (Homo sapiens, UniProt P41595); assay: biochemical; type: binding
T2 construct: expressed in transfected cells

[3] = test system: canine 5-HT2B receptor; assay: biochemical; type: binding; conditions: ratio of binding affinities canine vs human 5-HT2B
[4] = target: T1, canine 5-HT2A receptor; assay: biochemical
[5] = target: T3, human 5-HT2A receptor (Homo sapiens, UniProt P28223); assay: biochemical; type: binding
T3 construct: expressed in transfected cells

[6] = target: T4, canine 5-HT2B receptor (Canis lupus familiaris, UniProt Q50DZ8); assay: biochemical; type: binding; parameters: Apparent equilibrium dissociation constant KD; other: canine 5-HT2B, COS-7 membranes, mean ± S.E.M. (n = 3 to 6); other: COS-7 membranes; head prints [^3H]-ketanserin; mean ± S.E.M of 3-8 experiments; KD of radioligand; other: canine 5-HT2B, transfected COS-7 membranes; other: HEK-293, Ca^2+ FLIPR, mean ± S.E.M of 3 to 6 experime
[7] = target: T1, canine 5-HT2A receptor; conditions: for Ratio c5-HT2A vs. h5-HT2A: ratio of binding affinities canine vs human 5-HT2A
[8] = target: T3, human 5-HT2A receptor; assay: cell-based; type: cell-based
[9] = target: T2, human 5-HT2B receptor; assay: cell-based; type: cell-based; conditions: for Rel. eff h5-HT2B: fraction of response to 10 μM 5-HT
[10] = target: T4, canine 5-HT2B receptor; assay: cell-based; type: cell-based; parameters: Apparent equilibrium dissociation constant KD; other: canine 5-HT2B, COS-7 membranes, mean ± S.E.M. (n = 3 to 6); other: COS-7 membranes; head prints [^3H]-ketanserin; mean ± S.E.M of 3-8 experiments; KD of radioligand; other: canine 5-HT2B, transfected COS-7 membranes; other: HEK-293, Ca^2+ FLIPR, mean ± S.E.M of 3 to 6 experime; conditions: for Rel. eff. c5-HT2B: HEK-293, fraction of response to 10 μM 5-HT
[11] = test system: non-transfected cells (HEK-293, NIH3T3 or CHO); assay: FLIPR Ca^2+ assay in non-transfected cells; type: cell-based; conditions: non-transfected HEK-293, CHO or NIH3T3 cells
Experimental: Dye-loaded cells were plated onto 96-well ViewPlates (Packard, Meriden, Conn.) and incubated at 37° C. and 5% CO2 for one hour. Once dye-loaded, dye media was replaced with serum-free DMEM/F-12. […] Ligand-induced Ca^2+ release was measured using a Fluorometric Imaging Plate Reader (FLIPR, Molecular Devices, Sunnyvale, Calif.). Functional responses were measured as peak fluorescence intensity minus basal. The concentration of agonist that produced a half-maximal response is represented by the EC50 value. […] Antagonistic potency values were converted to apparent pKB values using a modified Cheng-Prusoff correction. Apparent pKB=−log IC50/1+[conc agonist/EC50]. Data are expressed as mean±S.E.M.
None of the compounds (10 μM) tested elicited a response in non-transfected cells (HEK-293, NIH3T3 or CHO). In addition, none of the antagonists tested increased Ca^2+ in any of the transfected cell types.

[12] = target: T1, canine 5-HT2A receptor; assay: Saturation binding of [^3H]5-HT to membranes of COS-7 cells transfected with canine 5-HT2A receptor
[13] = read-out: Affinity constant pKI h5-HT2B (converted)
[14] = read-out: Affinity constant pKI c5-HT2B (converted)
[15] = CHO, Ca^2+ FLIPR, apparent pKB, mean ± S.E.M of 3 to 6 experiments, read-out: Antagonist affinity pKB h5-HT2B (converted)
[16] = HEK-293, Ca^2+ FLIPR, apparent pKB, mean ± S.E.M of 3 to 6 experiments, read-out: Antagonist affinity pKB c5-HT2B (converted)
[17] = HEK-293, Ca^2+ FLIPR, apparent pKB, mean ± S.E.M of 3 to 6 experiments

T3 sequence (P28223 whole entry): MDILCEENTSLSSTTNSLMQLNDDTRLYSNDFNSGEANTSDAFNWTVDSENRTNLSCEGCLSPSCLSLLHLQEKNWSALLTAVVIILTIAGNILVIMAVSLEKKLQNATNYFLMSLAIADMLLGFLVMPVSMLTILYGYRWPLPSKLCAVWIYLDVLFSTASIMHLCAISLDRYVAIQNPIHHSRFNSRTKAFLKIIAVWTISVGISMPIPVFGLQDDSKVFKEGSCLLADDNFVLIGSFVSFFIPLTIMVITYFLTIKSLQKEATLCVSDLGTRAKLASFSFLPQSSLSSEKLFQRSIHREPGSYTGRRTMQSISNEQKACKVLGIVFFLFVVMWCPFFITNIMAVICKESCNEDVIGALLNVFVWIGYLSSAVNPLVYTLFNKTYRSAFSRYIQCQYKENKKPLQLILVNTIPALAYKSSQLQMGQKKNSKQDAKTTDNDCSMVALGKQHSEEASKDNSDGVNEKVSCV
T2 sequence (P41595 whole entry): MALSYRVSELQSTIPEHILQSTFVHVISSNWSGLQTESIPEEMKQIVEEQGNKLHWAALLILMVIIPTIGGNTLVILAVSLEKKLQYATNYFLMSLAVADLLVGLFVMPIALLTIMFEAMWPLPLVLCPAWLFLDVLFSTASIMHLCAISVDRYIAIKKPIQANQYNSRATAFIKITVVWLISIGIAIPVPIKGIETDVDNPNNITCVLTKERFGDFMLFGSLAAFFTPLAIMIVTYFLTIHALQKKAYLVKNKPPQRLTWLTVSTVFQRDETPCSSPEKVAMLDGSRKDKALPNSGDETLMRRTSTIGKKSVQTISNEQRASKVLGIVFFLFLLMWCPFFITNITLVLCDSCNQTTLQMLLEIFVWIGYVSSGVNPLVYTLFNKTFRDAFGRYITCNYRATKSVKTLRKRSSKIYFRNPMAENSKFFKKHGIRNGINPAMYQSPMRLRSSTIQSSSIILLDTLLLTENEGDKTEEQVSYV
T1 sequence (O46635 whole entry): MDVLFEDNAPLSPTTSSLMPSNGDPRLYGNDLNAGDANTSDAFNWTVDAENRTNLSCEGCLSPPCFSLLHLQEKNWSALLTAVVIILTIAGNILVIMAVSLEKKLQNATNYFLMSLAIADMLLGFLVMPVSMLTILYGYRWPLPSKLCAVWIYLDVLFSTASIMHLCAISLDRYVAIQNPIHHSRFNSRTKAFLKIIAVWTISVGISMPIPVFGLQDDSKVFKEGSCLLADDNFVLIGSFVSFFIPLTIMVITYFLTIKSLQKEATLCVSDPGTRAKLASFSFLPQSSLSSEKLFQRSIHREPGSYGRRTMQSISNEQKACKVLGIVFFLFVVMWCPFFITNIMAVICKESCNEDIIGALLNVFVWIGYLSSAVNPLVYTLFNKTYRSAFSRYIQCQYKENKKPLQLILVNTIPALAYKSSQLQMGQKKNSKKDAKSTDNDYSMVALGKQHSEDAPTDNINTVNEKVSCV

## NCCc1c[nH]c2ccc(C(N)=O)cc12 [5-CT, 5-carboxyamidotryptamine]
[1]
  Rel. eff. c5-HT2A: 0.94 ± 0.08
[1]; functional Ca^2+ assay
  agonist potency at canine 5-HT2A compared to human 5-HT2A: higher potencies
[2]
  Ki: 61.7 nM
[3]
  Ratio c5-HT2B vs. h5-HT2B: 1.20
[4]
  Ki: 2290 nM
[5]
  Ki: 1150 nM
[6]
  Ki: 74.1 nM
[7]
  Ratio c5-HT2A vs. h5-HT2A: 1.99
[8]
  Rel. eff. h5-HT2A: 0.70 ± 0.13
[9]; CHO
  Rel. eff h5-HT2B: 0.95 ± 0.01
[10]
  Rel. eff. c5-HT2B: 1.19 ± 0.05

## NCCc1c[nH]c2ccc(O)cc12 [5-HT, 5-hydroxytryptamine]
[11]
  Ca^2+ response in non-transfected cells: No signal
[1]
  Rel. eff. c5-HT2A: 1
[1]; canine 5-HT2A, HEK-293, FIG. 5A
  peak fluorescence intensity of Ca^2+ response: 13600 peak fluorescence intensity units
[4]
  Ki: 178 nM
[8]
  Rel. eff. h5-HT2A: 1
  peak fluorescence intensity of Ca^2+ response: 15800 peak fluorescence intensity units

## CC(N)Cc1c[nH]c2ccc(OCc3cccs3)cc12 (centres unmarked) [BW-723C86, 1-{5-(2-thienyl-methoxy)-1H-3-indolyl}propan-2-amine]
[6]
  Ki: 26.3 nM
[9]; CHO
  Rel. eff h5-HT2B: 0.98 ± 0.01
[10]
  Rel. eff. c5-HT2B: 0.93 ± 0.03

## COc1cc(CC(C)N)c(OC)cc1I (centres unmarked) [DOI, 1-(2,5-dimethoxy-4-iodophenyl)-2-aminopropane]
[1]
  Rel. eff. c5-HT2A: 0.89 ± 0.02
[2]
  Ki: 15.1 nM
[4]
  Ki: 12 nM
[6]
  Ki: 13.2 nM
[8]
  Rel. eff. h5-HT2A: 0.65 ± 0.04
[9]; CHO
  Rel. eff h5-HT2B: 0.96 ± 0.02
[10]
  Rel. eff. c5-HT2B: 0.75 ± 0.03

## CN(C)CCO/N=C(/C=C/c1ccc(O)cc1)c1ccccc1F [Eplivanserin, eplivanserin]
[1]; HEK-293, Ca^2+ FLIPR, apparent pKB, mean ± S.E.M of 3 to 6 experiments, read-out: Antagonist affinity pKB c5-HT2A (converted)
  Kb: 0.251 nM
[2]; [13]
  Ki: 1410 nM
[4]
  Ki: 1 nM
[5]; read-out: Affinity constant pKI h5-HT2A (converted)
  Ki: 0.2 nM
[6]; [14]
  Ki: 1910 nM
[8]; NIH3T3, Ca^2+ FLIPR, apparent pKB, mean ± S.E.M of 3 to 6 experiments, read-out: Antagonist affinity pKB h5-HT2A (converted)
  Kb: 0.372 nM
[9]; [15]
  Kb: > 10000 nM
[10]; [16]
  Kb: > 10000 nM

## O=C(c1ccc(F)cc1)C1CCN(CCn2c(=O)[nH]c3ccccc3c2=O)CC1 [Ketanserin, ketanserin]
[1]
  Kb: 1.26 nM
[4]
  Ki: 14.5 nM
[6]
  Ki: 631 nM
[10]
  Kb: 1580 nM

## CN1C[C@@H](NS(=O)(=O)N(C)C)C[C@@H]2c3cccc4c3c(cn4C)C[C@H]21 [Mesulergine, mesulergine]
[1]
  Kb: 25.1 nM
[2]
  Ki: 8.71 nM
[4]
  Ki: 91.2 nM
[5]
  Ki: 22.9 nM
[6]; [14]
  Ki: 17 nM
[8]
  Kb: 58.9 nM
[9]
  Kb: 2.34 nM
[10]; [16]
  Kb: 0.501 nM

## CSc1ccc2c(c1)C(N1CCN(C)CC1)Cc1ccccc1S2 (centres unmarked) [Methiothepin, methiothepin]
[1]; [17]
  Antagonist affinity pKB c5-HT2A: 8.33 ± 0.09
[1]; functional Ca^2+ assay, Table 4
  antagonist affinity for canine 5-HT2A receptor compared to human 5-HT2A receptor: eleven-fold higher affinity
[6]; COS-7 membranes, head prints [^3H]-ketanserin, mean ± S.E.M of 3-8 experiments
  Affinity constant pKI c5-HT2B: 8.12 ± 0.16
[7]
  Ki: 3.55 nM
[10]; [17]
  Antagonist affinity pKB c5-HT2B: 8.07 ± 0.77

## COc1ccc2[nH]cc(C3=CCNCC3)c2c1 [RU-24969, 5-methoxy-3(1,2,3,6-tetrahydro-4-pyridiny)-1H-indole]
[6]
  Ki: 12.9 nM

## Cc1nc2sccn2c(=O)c1CCN1CCC(=C(c2ccc(F)cc2)c2ccc(F)cc2)CC1 [Ritanserin, ritanserin]
[1]
  Kb: 7.08 nM
[2]
  Ki: 4.57 nM
[4]
  Ki: 7.59 nM
[6]
  Ki: 3.98 nM
[9]
  Kb: 5.89 nM
[10]
  Kb: 10 nM

## Cc1cc(NC(=O)Nc2ccc3c(ccn3C)c2)sn1 [SB-204741, N-(1-methyl-5-in-dolyl)-N′-(3-methyl-5-isothiazolyl) urea]
[1]
  Kb: > 10000 nM
[2]; [13]
  Ki: 120 nM
[4]
  Ki: > 10000 nM
[6]; [14]
  Ki: 182 nM
[9]; [15]
  Kb: 44.7 nM
[10]; [16]
  Kb: 44.7 nM

## CN1CCc2cc(Cl)c(O)cc2[C@@H](c2ccccc2)C1 [SCH-23390, R-(+)-7-chloro-8-hydroxy-3-methyl-1-phenyl-2,3,4,5-tetrahydro(1H)-3-benzapine]
[2]; [13]
  Ki: 275 nM
[4]
  Ki: 16.2 nM
[5]
  Ki: 13.5 nM
[6]; [14]
  Ki: 309 nM

## FC(F)(F)c1cccc(N2CCNCC2)c1 [TFMPP, N-(3-trifluoromethyl-henyl)piperazine]
[1]
  Rel. eff. c5-HT2A: 0.72 ± 0.04
[1]; functional Ca^2+ assay
  agonist potency at canine 5-HT2A compared to human 5-HT2A: higher potencies
[2]; CHO membranes, head: [^3H]-mesulergine, mean ± S.E.M of 3-8 experiments
  Affinity constant pKI h5-HT2B: 7.40 ± 0.05
[3]
  Ratio c5-HT2B vs. h5-HT2B: 1.04
[4]
  Ki: 214 nM
[5]
  Ki: 87.1 nM
[6]
  Ki: 41.7 nM
[7]
  Ratio c5-HT2A vs. h5-HT2A: 2.45
[8]
  Rel. eff. h5-HT2A: 0.17 ± 0.01
[9]; CHO
  Rel. eff h5-HT2B: 0.49 ± 0.04
[10]; HEK-293, Ca^2+ FLIPR
  agonistic response on canine 5-HT2B receptor: no agonistic response

## COC(=O)[C@@H]1[C@H]2C[C@H]3c4[nH]c5ccccc5c4CCN3C[C@@H]2CC[C@@H]1O [Yohimbine, yohimbine]
[6]
  Ki: 81.3 nM
[10]
  Kb: 1.58 nM

## NCCc1c[nH]c2ccc(O)cc12 [[^3H]-5-HT]
[12]
  Kd: 3 ± 0.6 nM

## O=C(c1ccc(F)cc1)C1CCN(CCn2c(=O)[nH]c3ccccc3c2=O)CC1 [[^3H]-ketanserin]
[4]
  Kd: 1.3 ± 0.12 nM

## CN1C[C@@H](NS(=O)(=O)N(C)C)C[C@@H]2c3cccc4c3c(cn4C)C[C@H]21 [[^3H]-mesulergine]
[6]; canine 5-HT2B, transfected COS-7 membranes, read-out: KD of radioligand
  Kd: 5.43 ± 0.69 nM

## Clc1cccc(N2CCNCC2)c1 [m-CPP, 1-(3-chlorophenyl)piperazine]
[1]
  Rel. eff. c5-HT2A: 0.71 ± 0.04
[1]; functional Ca^2+ assay
  agonist potency at canine 5-HT2A compared to human 5-HT2A: higher potencies
[4]
  Ki: 195 nM
[6]
  Ki: 20.9 nM
[8]
  Rel. eff. h5-HT2A: 0.20 ± 0.02
[9]; CHO
  Rel. eff h5-HT2B: 0.55 ± 0.06
[10]; HEK-293, Ca^2+ FLIPR
  agonistic response on canine 5-HT2B receptor: no agonistic response

Reference: patent publication US7728107B2 (priority 2005, dated 2010)
